Assay results reported in PubChem BioAssay (NCI).
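Following 48 hours of exposure in 96-well plates, responses at five concentrations were used to interpolate endpoints linearly. The concentration for 50% growth inhibition is given as GI50. TGI marks complete inhibition of growth.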 Where a SMILES comes first, the peptide text is derived from it. The star is where a group is joined. Trt = c1ccc(C(c2ccccc2)(c2ccccc2)*)cc1; Cbz = O=C(OCc1ccccc1)*

How the values were obtained:
Experiment in all cases: NCI-60 cell line screen, 48 h
786-0 renal = system: 786-0 renal
A549 NSCLC = system: A549 NSCLC
BT-549 breast = system: BT-549 breast
HOP-62 NSCLC = system: HOP-62 NSCLC
IGROV1 ovarian = system: IGROV1 ovarian
MDA-MB-231 breast = system: MDA-MB-231 breast
NCI/ADR-RES ovarian = system: NCI/ADR-RES ovarian
OVCAR-4 ovarian = system: OVCAR-4 ovarian
SNB-19 CNS = system: SNB-19 CNS
SW-620 colon = system: SW-620 colon

SMILES	GI50 (786-0 renal)	TGI (786-0 renal)	GI50 (A549 NSCLC)	TGI (A549 NSCLC)	GI50 (BT-549 breast)	TGI (BT-549 breast)	GI50 (HOP-62 NSCLC)	TGI (HOP-62 NSCLC)	GI50 (IGROV1 ovarian)	TGI (IGROV1 ovarian)	GI50 (MDA-MB-231 breast)	TGI (MDA-MB-231 breast)	GI50 (NCI/ADR-RES ovarian)	TGI (NCI/ADR-RES ovarian)	GI50 (OVCAR-4 ovarian)	TGI (OVCAR-4 ovarian)	GI50 (SNB-19 CNS)	TGI (SNB-19 CNS)	GI50 (SW-620 colon)	TGI (SW-620 colon)
COc1cccc2c1cc1c3c(cc4c(c32)OCO4)C(=O)N1	7.15 µM	33.3 µM	5.27 µM	> 100 µM	2.08 µM	4.74 µM	6.89 µM	37.6 µM	4.26 µM	34.4 µM	7.9 µM	47.2 µM	2.71 µM	7.46 µM	2.61 µM	7.26 µM	6.37 µM	> 100 µM	4.4 µM	> 100 µM
O=C(Nc1cccc(C(F)(F)F)c1)c1cc2ccccc2cc1O	2.08 µM	35.5 µM	2.7 µM	> 61.6 µM	1.27 µM	6.09 µM	2.61 µM	11.8 µM	2.88 µM	> 57.7 µM	2.08 µM	7.08 µM	2.17 µM	9.34 µM	2.04 µM	> 71.1 µM	1.75 µM	> 100 µM	2.51 µM	> 100 µM
Cc1ccc(-c2n[nH]c(=O)c3noc(-c4ccc(C)cc4)c23)cc1	2.78 µM	24.9 µM	0.74 µM	> 100 µM	1.33 µM	12.8 µM	0.835 µM	13.4 µM	1.89 µM	28.6 µM	1.77 µM	39.8 µM	0.623 µM	> 100 µM	10.1 µM	43.6 µM	2.13 µM	42.8 µM	0.427 µM	> 100 µM
COC(=O)C(CSC(c1ccccc1)(c1ccccc1)c1ccccc1)NC(=O)C(CC(N)=O)NC(=O)OCc1ccccc1 (stereo not drawn) (Cbz-Asn-Cys(Trt)-OMe; configuration not given here)	3.44 µM	12.6 µM	4.38 µM	51.7 µM	14.8 µM	35.7 µM	3.77 µM	14.7 µM	6.1 µM	25.7 µM	2.93 µM	10.9 µM	4.48 µM	20.8 µM	7.64 µM	84.8 µM	5.22 µM	18.9 µM	7.34 µM	23.7 µM
COc1ccc(C(=O)c2cc3c(N)c(C(=O)Nc4cccc(OC)c4)sc3nc2C)cc1	0.713 µM	> 100 µM	0.753 µM	> 100 µM	1.67 µM	> 100 µM	–	> 100 µM	0.724 µM	> 100 µM	1.47 µM	> 100 µM	0.515 µM	> 100 µM	3.01 µM	> 100 µM	0.513 µM	> 100 µM	0.446 µM	> 100 µM
O=S(=O)(O)SCCNCCCCCC1CCCCC1	–	28 µM	–	23 µM	–	31.4 µM	–	17.9 µM	–	20.7 µM	–	30 µM	–	41.3 µM	–	32.3 µM	–	10.8 µM	–	21.7 µM
O=C(/C=C/c1ccc([N+](=O)[O-])cc1)c1cccc(Nc2nc(Nc3ccccc3)nc(Nc3ccccc3)n2)c1	13 µM	43.1 µM	25 µM	> 100 µM	27 µM	> 100 µM	32.2 µM	> 100 µM	0.671 µM	63.1 µM	10.7 µM	41.9 µM	18.2 µM	> 100 µM	22.1 µM	> 100 µM	79.8 µM	> 100 µM	4.08 µM	65.9 µM
COc1ccc(C2=Nc3c/c(=C\c4c(O)[nH]c5cc(Cl)ccc45)ccc3=N2)cc1	7.85 µM	20.6 µM	10.1 µM	25.4 µM	3.65 µM	18.3 µM	12.4 µM	29 µM	17.6 µM	50.5 µM	5.23 µM	19.6 µM	5 µM	33.8 µM	3.22 µM	13.6 µM	15.1 µM	41.1 µM	3.01 µM	19 µM
CCCCCCCCCCCCCCCCOCC(O)CO (stereo not drawn)	–	32.8 µM	–	44 µM	–	47 µM	–	43 µM	–	31.1 µM	–	35.6 µM	–	34.7 µM	–	46.1 µM	–	52.4 µM	–	41.2 µM
NNC(=O)C(O)C(O)C(=O)NN (stereo not drawn)	–	> 100 µM	–	> 100 µM	–	> 100 µM	–	> 100 µM	–	> 100 µM	–	> 100 µM	–	> 100 µM	–	> 100 µM	–	> 100 µM	–	> 100 µM
Cc1c(Cl)cccc1NC(=O)c1sc2nc3c(cc2c1N)CCCC3	0.681 µM	> 100 µM	0.984 µM	> 100 µM	0.591 µM	> 100 µM	0.451 µM	> 100 µM	0.82 µM	> 100 µM	> 100 µM	> 100 µM	0.396 µM	> 100 µM	0.827 µM	> 100 µM	0.979 µM	> 100 µM	0.471 µM	> 100 µM
O=C(CCCCCCCCC(=O)N/N=C\c1cc(Cl)ccc1O)N/N=C\c1cc(Cl)ccc1O	0.287 µM	15.5 µM	0.98 µM	> 100 µM	0.526 µM	96.8 µM	0.284 µM	> 100 µM	0.83 µM	> 100 µM	0.265 µM	> 82.6 µM	0.294 µM	–	0.315 µM	> 100 µM	0.813 µM	> 100 µM	0.916 µM	> 100 µM
CN1CCN(c2ccc3nc(-c4ccc(OCCCCN5CCN(CCCCN6C(=O)c7cccc8cccc(c78)C6=O)CC5)cc4)[nH]c3c2)CC1	> 100 µM	> 100 µM	> 100 µM	> 100 µM	40.4 µM	> 100 µM	> 100 µM	> 100 µM	48.4 µM	> 100 µM	54.7 µM	> 100 µM	> 100 µM	> 100 µM	> 100 µM	> 100 µM	> 100 µM	> 100 µM	39.2 µM	> 100 µM
